Assays:
Assay type in all cases: biochemical
[1] = target: T1, c-Met (Homo sapiens, UniProt P08581); experiment: Kinase inhibition assay (33P transfer), c-Met; conditions: Table 2, kinase inhibition class; read-out: Met-1
T1 construct: Kinases are expressed as either kinase domains or full length constructs; made in house
Summary of the method: (§1)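 Kinase domains or full-length enzymes, GST- or polyHis-tagged, were expressed in E. coli or baculovirus High Five cells and affinity-purified. Transfer of 33PO4 from ATP onto plate-bound poly(Glu,Tyr) 4:1 or poly(Arg,Ser) 3:1 was counted by liquid scintillation after a 0.5% phosphoric acid wash. IC50 = concentration halving incorporation.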

[2] = target: T2, EGFR (Homo sapiens, UniProt P00533); experiment: Kinase inhibition assay (33P transfer), EGFR; conditions: Table 2, kinase inhibition class; read-out: EGFR-1
T2 construct: Kinases are expressed as either kinase domains or full length constructs; made in house
Summary of the method: as §1

[3] = target: T3, AKT (Homo sapiens, UniProt Q9Y243); experiment: Kinase inhibition assay (33P transfer), AKT; conditions: Table 2, kinase inhibition class; read-out: AKT3-1
T3 construct: Kinases are expressed as either kinase domains or full length constructs; made in house
Summary of the method: (§2)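 33P-ATP transfer to coated synthetic polymer substrates; acid wash (0.5% H3PO4), scintillant, liquid scintillation count. Enzymes: His- or GST-fusion kinases from E. coli or High Five insect cells.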

[4] = target: T4, ErbB2 (Homo sapiens, UniProt P04626); experiment: Kinase inhibition assay (33P transfer), ErbB2; conditions: read-out: ErbB2-2
T4 construct: Kinases are expressed as either kinase domains or full length constructs; made in house
Summary of the method: as §1

[5] = target: T5, IGFR-1 (Homo sapiens, UniProt P08069); experiment: Kinase inhibition assay, IGFR-1 (Table 2); conditions: Table 2, kinase inhibition class
T5 construct: Kinases are expressed as either kinase domains or full length constructs; made in house

[6] = target: T6, PDGFRB (Homo sapiens, UniProt P09619); experiment: Kinase inhibition assay (33P transfer), PDGFRB; conditions: read-out: PDGFRB-1
T6 construct: Kinases are expressed as either kinase domains or full length constructs; made in house

[7] = target: T7, Zap-70 (Homo sapiens, UniProt P43403); experiment: Kinase inhibition assay (33P transfer), Zap-70; conditions: read-out: Zap-1
T7 construct: Kinases are expressed as either kinase domains or full length constructs; made in house
T7 sequence (P43403 1-619): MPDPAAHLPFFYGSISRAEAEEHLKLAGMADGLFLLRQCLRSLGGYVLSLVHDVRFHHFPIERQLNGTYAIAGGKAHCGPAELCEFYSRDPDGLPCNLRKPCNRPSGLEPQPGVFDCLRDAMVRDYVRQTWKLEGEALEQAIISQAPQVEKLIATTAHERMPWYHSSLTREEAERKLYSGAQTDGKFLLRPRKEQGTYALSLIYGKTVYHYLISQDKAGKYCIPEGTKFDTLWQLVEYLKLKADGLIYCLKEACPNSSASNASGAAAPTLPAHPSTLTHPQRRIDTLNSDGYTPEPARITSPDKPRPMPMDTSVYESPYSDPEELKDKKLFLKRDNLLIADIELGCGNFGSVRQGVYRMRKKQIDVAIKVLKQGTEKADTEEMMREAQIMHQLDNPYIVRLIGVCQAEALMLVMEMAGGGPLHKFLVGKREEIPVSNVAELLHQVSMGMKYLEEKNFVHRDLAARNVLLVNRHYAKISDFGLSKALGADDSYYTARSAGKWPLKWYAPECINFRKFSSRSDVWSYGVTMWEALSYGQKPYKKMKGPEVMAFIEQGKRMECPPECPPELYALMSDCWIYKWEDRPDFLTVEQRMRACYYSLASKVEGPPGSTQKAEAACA
Summary of the method: as §2

[8] = target: T8, Kdr (Homo sapiens, UniProt P35968); experiment: Kinase inhibition assay (33P transfer), Kdr; conditions: read-out: KDR-1
T8 construct: Kinases are expressed as either kinase domains or full length constructs; made in house
Summary of the method: as §2

[9] = target: T9, Lck (Homo sapiens, UniProt P06239); experiment: Kinase inhibition assay (33P transfer), Lck; conditions: read-out: Lck-1
T9 construct: Kinases are expressed as either kinase domains or full length constructs; made in house
Summary of the method: as §2

[10] = target: T10, Itk (Homo sapiens, UniProt Q08881); experiment: Kinase inhibition assay (33P transfer), Itk; conditions: read-out: Itk-1
T10 construct: Kinases are expressed as either kinase domains or full length constructs; made in house
T10 sequence (Q08881 1-620): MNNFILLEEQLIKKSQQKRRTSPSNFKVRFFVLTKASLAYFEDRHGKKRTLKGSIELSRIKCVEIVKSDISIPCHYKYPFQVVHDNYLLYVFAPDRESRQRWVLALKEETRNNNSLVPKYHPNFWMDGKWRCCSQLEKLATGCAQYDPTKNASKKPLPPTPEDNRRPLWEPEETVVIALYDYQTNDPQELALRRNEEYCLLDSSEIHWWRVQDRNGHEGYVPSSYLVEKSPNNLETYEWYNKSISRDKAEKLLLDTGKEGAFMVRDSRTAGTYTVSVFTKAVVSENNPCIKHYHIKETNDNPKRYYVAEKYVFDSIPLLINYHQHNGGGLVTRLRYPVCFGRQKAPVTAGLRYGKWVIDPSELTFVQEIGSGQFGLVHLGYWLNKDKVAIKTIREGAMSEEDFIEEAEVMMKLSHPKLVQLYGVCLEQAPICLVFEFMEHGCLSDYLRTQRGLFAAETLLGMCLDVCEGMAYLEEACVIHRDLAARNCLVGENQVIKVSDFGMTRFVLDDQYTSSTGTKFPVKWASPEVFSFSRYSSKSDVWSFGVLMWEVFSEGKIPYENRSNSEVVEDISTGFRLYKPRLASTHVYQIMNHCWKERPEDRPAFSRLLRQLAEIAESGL
Summary of the method: as §1

T6 sequence (P09619 33-1106, species assumed): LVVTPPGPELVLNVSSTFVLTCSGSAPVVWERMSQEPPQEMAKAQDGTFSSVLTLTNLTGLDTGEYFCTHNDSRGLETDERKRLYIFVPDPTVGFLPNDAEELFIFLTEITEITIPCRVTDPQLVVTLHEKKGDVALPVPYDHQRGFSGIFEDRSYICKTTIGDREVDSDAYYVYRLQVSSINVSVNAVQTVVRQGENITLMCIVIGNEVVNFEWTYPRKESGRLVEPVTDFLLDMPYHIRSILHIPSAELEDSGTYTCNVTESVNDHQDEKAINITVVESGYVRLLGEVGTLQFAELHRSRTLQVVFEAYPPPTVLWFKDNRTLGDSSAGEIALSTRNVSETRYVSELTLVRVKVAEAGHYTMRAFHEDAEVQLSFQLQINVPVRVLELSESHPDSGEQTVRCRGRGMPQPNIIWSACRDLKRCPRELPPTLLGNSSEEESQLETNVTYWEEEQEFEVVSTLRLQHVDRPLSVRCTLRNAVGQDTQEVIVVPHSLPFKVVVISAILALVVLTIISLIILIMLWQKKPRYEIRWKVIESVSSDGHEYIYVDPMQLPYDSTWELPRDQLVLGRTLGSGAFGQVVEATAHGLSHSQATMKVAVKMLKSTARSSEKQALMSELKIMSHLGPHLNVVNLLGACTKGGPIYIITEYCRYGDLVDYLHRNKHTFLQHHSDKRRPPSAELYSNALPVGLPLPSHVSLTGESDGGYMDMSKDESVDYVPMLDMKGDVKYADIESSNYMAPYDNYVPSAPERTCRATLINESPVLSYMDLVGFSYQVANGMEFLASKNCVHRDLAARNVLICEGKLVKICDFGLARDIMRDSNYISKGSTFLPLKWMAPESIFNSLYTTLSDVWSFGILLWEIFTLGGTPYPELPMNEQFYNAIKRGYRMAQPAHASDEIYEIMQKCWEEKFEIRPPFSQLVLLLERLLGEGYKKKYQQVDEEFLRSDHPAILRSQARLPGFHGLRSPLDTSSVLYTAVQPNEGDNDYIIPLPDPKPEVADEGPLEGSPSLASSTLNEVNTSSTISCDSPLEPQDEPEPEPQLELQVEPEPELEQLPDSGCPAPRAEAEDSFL
T3 sequence (Q9Y243 whole entry, the tested form may be a part): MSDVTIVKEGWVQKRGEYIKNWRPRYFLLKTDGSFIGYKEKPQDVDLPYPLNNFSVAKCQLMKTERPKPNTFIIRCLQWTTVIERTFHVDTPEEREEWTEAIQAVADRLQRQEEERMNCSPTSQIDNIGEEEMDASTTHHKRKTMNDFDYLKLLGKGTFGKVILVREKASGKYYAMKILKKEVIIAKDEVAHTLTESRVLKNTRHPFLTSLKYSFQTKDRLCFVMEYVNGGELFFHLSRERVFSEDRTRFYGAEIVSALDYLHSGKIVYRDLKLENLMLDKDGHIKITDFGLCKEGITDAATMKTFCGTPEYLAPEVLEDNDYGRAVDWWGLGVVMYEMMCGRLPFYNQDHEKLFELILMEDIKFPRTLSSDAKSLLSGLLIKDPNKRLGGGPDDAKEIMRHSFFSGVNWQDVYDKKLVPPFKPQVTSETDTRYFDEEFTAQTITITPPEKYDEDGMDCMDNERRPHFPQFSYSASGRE
T4 sequence (P04626 23-1255, species assumed): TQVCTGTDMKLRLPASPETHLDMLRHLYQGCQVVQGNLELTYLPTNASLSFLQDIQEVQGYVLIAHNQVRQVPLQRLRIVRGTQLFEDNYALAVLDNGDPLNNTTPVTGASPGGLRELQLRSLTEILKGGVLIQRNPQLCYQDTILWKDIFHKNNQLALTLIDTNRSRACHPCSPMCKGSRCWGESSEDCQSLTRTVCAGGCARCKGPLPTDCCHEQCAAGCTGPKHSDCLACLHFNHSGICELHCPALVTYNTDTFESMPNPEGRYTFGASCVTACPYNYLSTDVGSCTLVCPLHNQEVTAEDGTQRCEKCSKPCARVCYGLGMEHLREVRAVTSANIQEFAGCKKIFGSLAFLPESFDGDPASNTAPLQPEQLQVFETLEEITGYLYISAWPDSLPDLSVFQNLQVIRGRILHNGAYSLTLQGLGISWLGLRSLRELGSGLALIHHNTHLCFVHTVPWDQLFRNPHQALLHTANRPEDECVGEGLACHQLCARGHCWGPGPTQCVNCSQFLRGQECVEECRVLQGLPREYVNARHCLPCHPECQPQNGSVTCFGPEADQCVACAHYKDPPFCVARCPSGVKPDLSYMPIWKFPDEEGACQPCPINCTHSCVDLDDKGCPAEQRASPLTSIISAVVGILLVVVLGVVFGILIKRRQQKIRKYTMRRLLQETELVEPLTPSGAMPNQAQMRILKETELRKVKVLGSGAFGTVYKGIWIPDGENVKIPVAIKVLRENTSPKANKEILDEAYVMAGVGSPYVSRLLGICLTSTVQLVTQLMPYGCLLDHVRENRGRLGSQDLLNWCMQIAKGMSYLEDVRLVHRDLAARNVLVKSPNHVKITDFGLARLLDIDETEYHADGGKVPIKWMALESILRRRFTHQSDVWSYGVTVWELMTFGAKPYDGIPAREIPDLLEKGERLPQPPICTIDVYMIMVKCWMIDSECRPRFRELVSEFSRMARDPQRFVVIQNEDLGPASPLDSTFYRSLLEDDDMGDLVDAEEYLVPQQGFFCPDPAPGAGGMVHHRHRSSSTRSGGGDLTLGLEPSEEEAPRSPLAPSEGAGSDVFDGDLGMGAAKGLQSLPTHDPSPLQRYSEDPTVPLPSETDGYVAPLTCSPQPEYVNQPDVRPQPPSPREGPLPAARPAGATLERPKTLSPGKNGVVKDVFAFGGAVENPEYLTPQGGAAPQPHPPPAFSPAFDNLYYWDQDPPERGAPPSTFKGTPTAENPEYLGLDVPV
T2 sequence (P00533 25-1210, species assumed): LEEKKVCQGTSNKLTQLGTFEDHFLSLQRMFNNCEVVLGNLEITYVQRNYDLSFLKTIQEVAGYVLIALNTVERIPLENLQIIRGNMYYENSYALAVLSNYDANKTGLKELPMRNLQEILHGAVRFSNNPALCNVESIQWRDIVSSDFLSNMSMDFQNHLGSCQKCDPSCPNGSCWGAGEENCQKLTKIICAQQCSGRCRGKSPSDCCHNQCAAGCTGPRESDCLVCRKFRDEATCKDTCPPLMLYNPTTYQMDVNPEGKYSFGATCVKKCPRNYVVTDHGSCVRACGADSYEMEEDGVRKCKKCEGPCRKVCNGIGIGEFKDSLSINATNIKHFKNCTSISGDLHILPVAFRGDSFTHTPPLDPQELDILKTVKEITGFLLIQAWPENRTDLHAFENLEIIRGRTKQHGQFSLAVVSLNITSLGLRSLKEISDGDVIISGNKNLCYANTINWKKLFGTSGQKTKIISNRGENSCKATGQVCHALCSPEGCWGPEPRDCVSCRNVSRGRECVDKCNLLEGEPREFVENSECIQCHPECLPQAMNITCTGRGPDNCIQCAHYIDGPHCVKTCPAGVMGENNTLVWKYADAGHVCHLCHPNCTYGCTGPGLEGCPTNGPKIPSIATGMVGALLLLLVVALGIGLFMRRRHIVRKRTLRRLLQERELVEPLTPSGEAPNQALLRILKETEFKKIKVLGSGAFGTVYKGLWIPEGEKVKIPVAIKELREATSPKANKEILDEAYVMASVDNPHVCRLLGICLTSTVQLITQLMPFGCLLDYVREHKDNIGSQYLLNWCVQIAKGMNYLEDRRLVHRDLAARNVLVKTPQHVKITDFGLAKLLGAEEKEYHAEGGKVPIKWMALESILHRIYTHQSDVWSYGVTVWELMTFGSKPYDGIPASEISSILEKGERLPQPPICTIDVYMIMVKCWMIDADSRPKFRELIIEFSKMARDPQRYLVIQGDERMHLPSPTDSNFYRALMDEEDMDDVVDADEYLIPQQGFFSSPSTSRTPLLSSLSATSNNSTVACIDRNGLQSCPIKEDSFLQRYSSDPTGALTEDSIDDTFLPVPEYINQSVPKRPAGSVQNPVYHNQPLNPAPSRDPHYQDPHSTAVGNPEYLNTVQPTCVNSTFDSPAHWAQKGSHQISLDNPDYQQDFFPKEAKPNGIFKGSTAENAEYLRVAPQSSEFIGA
T9 sequence (P06239 whole entry, species assumed, the tested form may be a part): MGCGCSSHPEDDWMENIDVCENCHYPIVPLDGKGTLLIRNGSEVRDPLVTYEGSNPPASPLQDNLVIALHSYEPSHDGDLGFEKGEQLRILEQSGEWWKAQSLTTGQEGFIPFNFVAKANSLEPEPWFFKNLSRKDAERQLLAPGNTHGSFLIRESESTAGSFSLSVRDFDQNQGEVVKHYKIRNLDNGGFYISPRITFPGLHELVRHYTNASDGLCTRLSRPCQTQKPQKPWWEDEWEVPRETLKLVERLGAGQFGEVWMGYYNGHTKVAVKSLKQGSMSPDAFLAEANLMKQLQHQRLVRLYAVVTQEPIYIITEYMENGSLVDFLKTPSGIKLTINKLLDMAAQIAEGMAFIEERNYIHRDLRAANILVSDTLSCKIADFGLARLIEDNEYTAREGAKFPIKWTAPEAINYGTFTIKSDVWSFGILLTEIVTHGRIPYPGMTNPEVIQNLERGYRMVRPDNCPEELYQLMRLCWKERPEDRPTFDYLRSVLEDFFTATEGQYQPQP

Row | Compound | IC50 [1] | IC50 [2] | IC50 [3] | IC50 [4] | IC50 [5] | IC50 [6] | IC50 [7] | IC50 [8] | IC50 [9] | IC50 [10]
1 | CCOC(=O)N1CCC(Nc2ncnc(N3CCCc4cc(C)ccc43)n2)CC1 [Compound 765] | > 11.3 µM | > 11.3 µM | > 11.3 µM | > 11.3 µM | > 11.3 µM | > 11.3 µM | > 11.3 µM | > 11.3 µM | > 11.3 µM | > 11.3 µM
2 | COc1cc(Nc2ncnc(-n3c(Nc4ccccc4C(C)C)nc4ccccc43)n2)cc(OC)c1OC [Compound 1049] | 0.782 to 4.69 µM | > 8.8 µM | > 8.8 µM | > 8.8 µM | > 8.8 µM | 0.782 to 4.69 µM | > 8.8 µM | < 0.782 µM | 0.782 to 4.69 µM | > 8.8 µM
3 | COc1cc(Nc2ncnc(NC3CC3c3ccccc3)n2)cc(OC)c1OCCN1CCOCC1 (centres unmarked) [Compound 563] | 4.87 to 7.11 µM | < 0.812 µM | > 9.14 µM | 0.812 to 4.87 µM | 0.812 to 4.87 µM | 0.812 to 4.87 µM | > 9.14 µM | 0.812 to 4.87 µM | < 0.812 µM | > 9.14 µM
4 | Cc1ccc2c(c1)CCCN2c1ncnc(Nc2ccc3ncsc3c2)n1 [Compound 773] | < 1.07 µM | 1.07 to 6.41 µM | > 12 µM | 1.07 to 6.41 µM | 1.07 to 6.41 µM | < 1.07 µM | > 12 µM | 1.07 to 6.41 µM | 1.07 to 6.41 µM | 1.07 to 6.41 µM
5 | CCN1CCCC1CNc1ncnc(Nc2ccc(OC)c(OC)c2)n1 (centres unmarked) [Compound 781] | > 12.6 µM | > 12.6 µM | > 12.6 µM | > 12.6 µM | > 12.6 µM | 1.12 to 6.7 µM | > 12.6 µM | > 12.6 µM | > 12.6 µM | > 12.6 µM
6 | CN(c1ccc(F)c(Cl)c1)c1ncnc(Nc2cccc(Br)c2)n1 [Compound 713] | > 11 µM | > 11 µM | > 11 µM | > 11 µM | > 11 µM | > 11 µM | > 11 µM | 0.979 to 5.87 µM | > 11 µM | > 11 µM
7 | COC(=O)c1ccc(-c2cc(Nc3ncnc(Nc4ccc(CO)cc4)n3)[nH]n2)cc1 [Compound 989] | 8.38 to 10.8 µM | 0.958 to 5.75 µM | > 10.8 µM | > 10.8 µM | 8.38 to 10.8 µM | > 10.8 µM | > 10.8 µM | 8.38 to 10.8 µM | > 10.8 µM | 8.38 to 10.8 µM
8 | CN(c1cccc(Cl)c1)c1ncnc(Nc2ccccc2)n1 [Compound 748] | 1.28 to 7.7 µM | < 1.28 µM | > 14.4 µM | 1.28 to 7.7 µM | 7.7 to 11.2 µM | 1.28 to 7.7 µM | > 14.4 µM | 7.7 to 11.2 µM | 1.28 to 7.7 µM | > 14.4 µM
9 | CN(c1cccc(Cl)c1)c1ncnc(Nc2ncccn2)n1 [Compound 757] | > 14.3 µM | < 1.27 µM | > 14.3 µM | > 14.3 µM | > 14.3 µM | > 14.3 µM | > 14.3 µM | > 14.3 µM | > 14.3 µM | > 14.3 µM
10 | COc1ccc(CNc2nc3ccccc3n2-c2ncnc(Nc3cccc(CC(=O)O)c3)n2)cc1 [Compound 534] | > 9.35 µM | > 9.35 µM | > 9.35 µM | > 9.35 µM | > 9.35 µM | 0.831 to 4.98 µM | > 9.35 µM | < 0.831 µM | 7.27 to 9.35 µM | > 9.35 µM
11 | CN(c1cccc(Cl)c1)c1ncnc(Nc2cccc(CNC(=O)O[C@@H]3CCOC3)c2)n1 [Compound 721] | 0.879 to 5.28 µM | < 0.879 µM | > 9.89 µM | 0.879 to 5.28 µM | 7.69 to 9.89 µM | 0.879 to 5.28 µM | > 9.89 µM | 0.879 to 5.28 µM | 0.879 to 5.28 µM | > 9.89 µM
12 | CN(c1cccc(Cl)c1)c1ncnc(-n2c(N)nc3ccccc32)n1 [Compound 664] | 1.14 to 6.82 µM | 1.14 to 6.82 µM | 6.82 to 9.95 µM | 1.14 to 6.82 µM | 1.14 to 6.82 µM | 9.95 to 12.8 µM | 6.82 to 9.95 µM | 1.14 to 6.82 µM | 1.14 to 6.82 µM | 6.82 to 9.95 µM
13 | COc1cc(Br)ccc1Nc1nc2ccccc2n1-c1ncnc(Nc2cc(OC)c(OC)c(OC)c2)n1 [Compound 1052] | > 7.78 µM | > 7.78 µM | > 7.78 µM | 4.15 to 6.05 µM | > 7.78 µM | 4.15 to 6.05 µM | > 7.78 µM | 0.692 to 4.15 µM | > 7.78 µM | > 7.78 µM
14 | COc1cc(Nc2ncnc(Nc3cccc(CC(=O)O)c3)n2)cc(OC)c1OC [Compound 624] | > 10.9 µM | < 0.972 µM | > 10.9 µM | < 0.972 µM | > 10.9 µM | 0.972 to 5.83 µM | > 10.9 µM | 5.83 to 8.51 µM | 0.972 to 5.83 µM | > 10.9 µM
15 | CN(c1cccc(Cl)c1)c1ncnc(NC2CCN(Cc3ccccc3)CC2)n1 [Compound 752] | > 11 µM | 0.978 to 5.87 µM | > 11 µM | > 11 µM | > 11 µM | > 11 µM | > 11 µM | > 11 µM | > 11 µM | > 11 µM
16 | COc1cc(Nc2ncnc(-n3c(NCc4nccs4)nc4ccccc43)n2)cc(OC)c1OC [Compound 549] | > 9.17 µM | 4.89 to 7.13 µM | > 9.17 µM | 0.815 to 4.89 µM | > 9.17 µM | < 0.815 µM | > 9.17 µM | < 0.815 µM | 0.815 to 4.89 µM | > 9.17 µM
17 | c1ccc(Cn2ncc3cc(Nc4ncnc(NCC5CCCCC5)n4)ccc32)cc1 [Compound 727] | 8.46 to 10.9 µM | > 10.9 µM | > 10.9 µM | > 10.9 µM | > 10.9 µM | > 10.9 µM | 5.8 to 8.46 µM | 8.46 to 10.9 µM | > 10.9 µM | > 10.9 µM
18 | N#CCc1ccc(Nc2ncnc(Nc3ccc4c(cnn4Cc4ccccc4)c3)n2)cc1 [Compound 731] | 0.925 to 5.55 µM | < 0.925 µM | 8.09 to 10.4 µM | < 0.925 µM | 0.925 to 5.55 µM | 0.925 to 5.55 µM | 5.55 to 8.09 µM | 0.925 to 5.55 µM | 0.925 to 5.55 µM | 0.925 to 5.55 µM
19 | CCc1ccc(Nc2nc3ccccc3n2-c2ncnc(Nc3cc(OC)c(OC)c(OC)c3)n2)cc1 [Compound 1048] | > 9.04 µM | < 0.804 µM | > 9.04 µM | 0.804 to 4.82 µM | > 9.04 µM | 7.03 to 9.04 µM | > 9.04 µM | < 0.804 µM | 0.804 to 4.82 µM | > 9.04 µM
20 | c1ccc(CCNc2ncnc(Nc3ccc4c(cnn4Cc4ccccc4)c3)n2)cc1 [Compound 734] | 8.3 to 10.7 µM | > 10.7 µM | > 10.7 µM | 5.69 to 8.3 µM | 5.69 to 8.3 µM | > 10.7 µM | 5.69 to 8.3 µM | 0.949 to 5.69 µM | > 10.7 µM | > 10.7 µM
